Where a name gives a salt, the structure may show the parent alone. Read-outs that look alike come from different tables or passages of the source.
Columns and labels:
[1] = molecular target: T1, SF9 affinity purified rat FPT (Rattus norvegicus, UniProt Q02293+Q04631); assay: PFT (farnesyl protein transferase) inhibitory activity, radiolabeled farnesyl pyrophosphate / biotinyl peptide bead assay; format: biochemical; conditions: read-out: FTase, IC50
T1 construct: made in house; host or cells: Sf9 insect cells
Method: The protein:farnesyl transferase (PFT) or farnesyl protein transferase (FPT) inhibitory activity of compounds of the present invention were assayed in HEPES buffer (pH 7.4) containing 5 mM potassium phosphate and 20 μM ZnCl2. The solution also contained 5 mM DTT (dithiothreitol), 5 mM MgCl2, and 0.1% PEG 8000. Assays were performed in 96 well plates (Wallec) and employed solutions composed of varying concentrations of a compound of the present invention in 10% DMSO (dimethylsulfoxide). Upon addition of both substrates, radiolabeled farnesyl pyrophosphate ([1^3H], specific activity 15-30 Ci/mmol, final concentration 134 nM) and (biotinyl)-Ahe-Thr-Lys-Cys-Val-Ile-Met ([3aS[3a alpha, 4 beta, 6a alpha]-hexahydro-2-oxo-1H-thieno[3,4-d]imidazole-5-pentanoic acid]-[7-aminoheptanoic acid]-Thr-Lys-Cys-Val-Ile-Met) (Ahe is 7-aminoheptanoic acid, Thr is threonine, Lys is lysine, Cys is cysteine, Val is valine, Ile is isoleucine, and Met is methionine) (final concentration 0.2 μM), the enzyme reaction was started by addition of SF9 affinity purified rat FPT. After incubation at 30° C. for 30 minutes, the reaction was terminated by diluting the reaction 2.5-fold with a stop buffer containing 1.5 M magnesium acetate, 0.2 M H3PO4, 0.5% BSA (bovine serum albumin), and strepavidin beads (Amersham) at a concentration of 1.3 mg/mL. After allowing the plate to settle for 30 minutes at room temperature, radioactivity was quantitated on a microbeta counter (Model 1450, Wallec). The assay was also carried out without 5 mM potassium phosphate.

[2] = average of two tests unless n is given in parentheses
[3] = Examples 56-74, parallel synthesis array: single test, values adjusted to account for the purity of the sample

Structure (SMILES)	melting point	IC50 [1, 2]	IC50 [1, 3]
CC(=C1CCc2cc(OCCc3c[nH]cn3)ccc2C1=O)c1ccccc1 (as salt: HCl) [Example 40, 6-[2-(1H-Imidazole-4-yl)-ethoxy]-2-(1-phenyl-ethylidene)-3,4-dihydro-2H-naphthalen-1-one]	170 to 172 °C		
CSc1ccc(C=C2CCc3cc(OCCn4ccnc4)ccc3C2=O)cc1 [Example 4]	161 to 161.5 °C	78 nM	
O=C1C(=Cc2ccc(Br)cc2)CCc2cc(OCCn3ccnc3)ccc21 [Example 5, 2-(4-Bromo-benzylidene)-6-(2-imidazole-1-yl-ethoxy)-3,4-dihydro-2H-naphthalen-1-one]	152 to 153 °C	1370 nM	
O=C1C(=Cc2ccncc2)CCc2cc(OCCn3ccnc3)ccc21 [Example 6, 6-(2-Imidazole-1-yl-ethoxy)-2-pyridin-4-ylmethylene-3,4-dihydro-2H-naphthalen-1-one]	128.5 to 129 °C	1260 nM	
O=C1C(=Cc2ccc([N+](=O)[O-])cc2)CCc2cc(OCCn3ccnc3)ccc21 [Example 7, 6-(2-Imidazole-1-yl-ethoxy)-2-(4-nitro-benzylidene)-3,4-dihydro-2H-naphthalen-1-one]	184 to 185 °C	1700 nM	
CSc1ccc(CC2CCc3cc(OCCn4ccnc4)ccc3C2=O)cc1 (stereo not shown) [Example 10, 6-(2-Imidazole-1yl-ethoxy)-2-(4-methylsulfanyl-benzyl)-3,4-dihydro-2H-naphthalen-1-one]	114 to 117 °C	370 nM	
O=C1C(=Cc2ccsc2)CCc2cc(OCCn3ccnc3)ccc21 [Example 11, 6-(2-Imidazole-1yl-ethoxy)-2-thiophen-3-ylmethylene-3,4-dihydro-2H-naphthalen-1-one]	61 to 62 °C	120 nM	
O=C(O)c1ccc(C=C2CCc3cc(OCCn4ccnc4)ccc3C2=O)cc1 [Example 12, 4-[6-(2-Imidazole-1-yl-ethoxy)-1-oxo-3,4-dihydro-1H-naphthalen-2-ylidenemethyl]-benzoic acid]	267 to 267.5 °C	600 nM	
O=C1c2ccc(OCCn3ccnc3)cc2CCC1Cc1ccc(Br)cc1 (stereo not shown) [Example 13, 2-(4-Bromo-benzyl)-6-(2-imidazole-1-yl-ethoxy)-3,4-dihydro-2H-naphthalen-1-one]	129 to 130.5 °C	290 nM	
O=C1C(=Cc2cccs2)CCc2cc(OCCn3ccnc3)ccc21 [Example 14, 6-(2-Imidazole-1-yl-ethoxy)-2-thiophen-2-ylmethylene-3,4-dihydro-2H-naphthalen-1-one]	137 to 138 °C	89 nM	
O=C1C(=Cc2cccc3ccccc23)CCc2cc(OCCn3ccnc3)ccc21 [Example 15, 6-(2-Imidazole-1-yl-ethoxy)-2-naphthalen-1-ylmethylene-3,4-dihydro-2H-naphthalen-1-one]	147 to 148 °C	1300 nM	
O=C1C(=Cc2ccco2)CCc2cc(OCCn3ccnc3)ccc21 [Example 16, 2-Furan-2-ylmethylene-6-(2-imidazole-1-yl-ethoxy)-3,4-dihydro-2H-naphthalen-1-one]	109 to 110 °C	110 nM	
O=C1C(=Cc2cc(Br)cs2)CCc2cc(OCCn3ccnc3)ccc21 [Example 17, 2-(4-Bromo-thiophen-2-ylmethylene)-6-(2-imidazole-1-yl-ethoxy)-3,4-dihydro-2H-naphthalen-1-one]	164 to 166 °C	100 nM	
O=C1C(=Cc2ccc(Cl)s2)CCc2cc(OCCn3ccnc3)ccc21 [Example 18, 2-(5-Chloro-thiophen-2-ylmethylene)-6-(2-imidazole-1-yl-ethoxy)-3,4-dihydro-2H-naphthalen-1-one]	143 to 144 °C	320 nM	
CSc1ccc(C=C2CCc3cc(OCCn4ccnc4)ccc3C2=O)s1 [Example 19, 6-(2-Imidazole-1-yl-ethoxy)-2-(5-methylsulfanyl-thiophen-2-ylmethylene)-3,4-dihydro-2H-naphthalen-1-one]	102 to 104 °C	700 nM	
O=C1C(=Cc2sccc2Oc2ccccc2)CCc2cc(OCCn3ccnc3)ccc21 [Example 20, 6-(2-Imidazole-1-yl-ethoxy)-2-(3-phenoxy-thiophen-2-ylmethylene)-3,4-dihydro-2H-naphthalen-1-one]	135 to 137 °C	3100 nM	
O=C1C(=Cc2ccc(-c3cccs3)s2)CCc2cc(OCCn3ccnc3)ccc21 [Example 21, 2-[2,2′]Bithiophenyl-5-ylmethylene-6-(2-imidazole-1-yl-ethoxy)-3,4-dihydro-2H-naphthalen-1-one]	180 to 181 °C	2800 nM	

Structure (SMILES)	melting point	IC50 [1, 2]	IC50 [1, 3]
O=C1C(=Cc2ccc([N+](=O)[O-])s2)CCc2cc(OCCn3ccnc3)ccc21 [Example 22, 6-(2-Imidazole-1-yl-ethoxy)-2-(5-nitro-thiophen-2-ylmethylene)-3,4-dihydro-2H-naphthalen-1-one]	> 240 °C	370 nM	
O=C1C(=Cc2ccoc2)CCc2cc(OCCn3ccnc3)ccc21 [Example 23, 2-Furan-3-ylmethylene-6-(2-imidazole-1-yl-ethoxy)-3,4-dihydro-2H-naphthalen-1-one]	116 to 117 °C	1600 nM	
COc1ccc(C=C2CCc3cc(OCCn4ccnc4)ccc3C2=O)cc1 [Example 24, 6-(2-Imidazole-1-yl-ethoxy)-2-(4-methoxy-benzylidene)-3,4-dihydro-2H-naphthalen-1-one]	132 to 133 °C	880 nM	
O=C1C(=Cc2ccsc2)CCc2cc(OCCc3c[nH]cn3)ccc21 [Example 28, 6-[2-(1H-Imidazole-4-yl)-ethoxy]-2-thiophen-3-ylmethylene-3,4-dihydro-2H-naphthalen-1-one]	94 to 96 °C	170 nM	
O=C1C(=Cc2cccs2)CCc2cc(OCCc3c[nH]cn3)ccc21 [Example 29, 6-[2-(1H-Imidazole-4-yl)-ethoxy]-2-thiophen-2-ylmethylene-3,4-dihydro-2H-naphthalen-1-one]	60 to 63 °C	88 nM	
O=C1C(=Cc2ccccc2)CCc2cc(OCCc3c[nH]cn3)ccc21 [Example 30, 2-Benzylidene-6-[2-(1H-imidazole-4-yl)-ethoxy]-3,4-dihydro-2H-naphthalen-1-one]	53 to 56 °C	890 nM	
O=C1/C(=C/c2cccs2)CNc2cc(OCCn3ccnc3)ccc21 [Example 49, 7-[2-(1H-1-Imidazolyl)ethoxy]-3-[(E)-1-(2-thienyl)methylidene]-1,2,3,4-tetrahydro-4-quinolinone]	211 to 213 °C		
COc1ccc(/C=C2\CCc3cc(OCCn4ccnc4)ccc3C2=O)c(OC)c1OC [Example 69, 6-[2-(1H-1-Imidazolyl)ethoxy]-2-[(E)-1-(2,3,4-trimethoxyphenyl)methylidene]-1,2,3,4-tetrahydro-1-naphthalenone]			1300 nM
O=C1/C(=C/c2ccc(I)cc2)CCc2cc(OCCn3ccnc3)ccc21 [Example 70, 6-[2-(1H-1-Imidazolyl)ethoxy]-2-[(E)-1-(4-iodophenyl)methylidene]-1,2,3,4-tetrahydro-1-naphthalenone]			320 nM
CN(C)c1ccc(/C=C2\CCc3cc(OCCn4ccnc4)ccc3C2=O)cc1 [Example 71]			110 nM
CC(C)(C)c1ccc(/C=C2\CCc3cc(OCCn4ccnc4)ccc3C2=O)cc1 [Example 72, 2-(E)-1-[4-(tert-Butyl)phenyl]methylidene-6-[2-(1H-1-imidazolyl)ethoxy]-1,2,3,4-tetrahydro-1-naphthalenone]			1200 nM
COc1cccc(/C=C2\CCc3cc(OCCn4ccnc4)ccc3C2=O)c1 [Example 73, 6-[2-(1H-1-Imidazolyl)ethoxy]-2-[(E)-1-(3-methoxyphenyl)methylidene]-1,2,3,4-tetrahydro-1-naphthalenone]			1140 nM
Cc1cccc(/C=C2\CCc3cc(OCCn4ccnc4)ccc3C2=O)c1 [Example 74, 6-[2-(1H-1-Imidazolyl)ethoxy]-2-[(E)-1-(3-methylphenyl)methylidene]-1,2,3,4-tetrahydro-1-naphthalenone]			1890 nM
O=C1CCCc2cc(OC(Cn3ccnc3)c3ccccc3)ccc21 (stereo not shown) [Example 80, 6-[2-(1H-1-Imidazolyl)-1-phenylethoxy]-1,2,3,4-tetrahydro-1-naphthalenone]		73 nM	
O=C1C(=Cc2cccs2)CCc2cc(OC(Cn3ccnc3)c3ccccc3)ccc21 (stereo not shown) [Example 81, 6-(2-Imidazol-1-yl-1-phenyl-ethoxy)-2-thiophen-2-ylmethylene-3,4-dihydro-2H-naphthalen-1-one]		37 nM	
O=C(CON=C1CCCc2cc(OCCn3ccnc3)ccc21)NCC1(c2ccccc2)CCC1 [Example 82, 2-[6-(2-Imidazol-1-yl-ethoxy)-3,4-dihydro-2H-naphthalen-1-ylideneaminooxy]-N-(1-phenyl-cyclobutylmethyl)-acetamide]		420 nM	

Reference: patent publication US6528535B2, “Bicyclic inhibitors of protein farnesyl transferase” (Warner-Lambert Company, priority 1997, dated 2003)
